According to patent publication US20240091310A1, “COMPOSITIONS AND METHODS USEFUL FOR THE PREVENTION AND/OR TREATMENT OF DISEASE IN MAMMALS” (VIRO-GEN (PTY) LTD, priority 2020, published 2024):

Experiments:
[1] = Transdermal absorption of liquid DMF; type: in vivo, human; conditions: two patches of diameter 9 cm, total skin surface area 127 cm^2
Experimental: For transdermal administration of a polar compound, the rate of absorption is determined by the skin of the subject.
Accordingly, the desired rate of absorption may be achieved by controlling the surface area of the skin exposed to the drug, as by determining the area of each patch and the number of patches applied to the skin.

HIV-1 [2] = assay: Follow-up HIV PCR and CD4 count after transdermal DMF study; type: in vivo, human
Description: Individuals, the study of whom generated the teachings of ZA 1998/064649, despite being infected with HIV have maintained a CD4^+ T-cell count above 350 for more than 20 years without being on antiretroviral treatment. These individuals are referred to herein as Long-term Non-Progressors (“LTNP”).
One such individual, had initially presented with HIV PCR detecting 63.298 HIV-1 RNA copies/ml of plasma in December 1996.

HIV-1 [3] = conditions: transdermal patch containing DMF; cited from earlier work
HIV = conditions: as previously disclosed; cited from earlier work

Row | Structure (SMILES) | absorption rate [1] | HIV-1 RNA copies/ml of plasma by HIV PCR (HIV-1 [2]; one LTNP individual, follow-up March 2006 after transdermal DMF study, initially 63.298 copies/ml in December 1996) | CD4 Count (HIV-1 [2]; same individual, follow-up 2011) | HIV-1 RNA copies/ml of plasma by HIV PCR (HIV-1 [2]; same individual, further follow-up 2011) | outcome of treatment of patients infected with HIV-1 (HIV-1 [3]) | inhibition of HIV production (HIV)
1 | CN(C)C=O [DMF, N,N-dimethylformamide] | about 1.2 g of DMF per hour | < 40 copies/ml | 920 µL⁻¹ | No | promising results | powerful inhibitors of HIV production
2 | C[S+](C)[O-] [DMSO, Diemthylsulfoxide] |  |  |  |  |  | powerful inhibitors of HIV production
